{
  "source": "patent US20260263651A1",
  "about": "“WOUND DRESSING” (UNIVERSITY OF SUNDERLAND, priority 2023, published 2026)",
  "key": {"Staphylococcus aureus": {"system": "Staphylococcus aureus", "test": "Microbiological evaluation of standardised bacterial suspensions, modified wound dressing with absorbed substrate on agar", "type": "cell-based", "parameters": "key to Observable colour change: − indicates no colour change; +− indicates relatively discernible blue colour change; + indicates a moderately strong blue colour change; ++ indicates a strong blue colour change", "settings": "for colour change: SA", "description": "(§1) ACTIVHEAL® simply A (10×20 cm) non-adhesive foam samples were provided by Advanced Medical Solutions Ltd. The wound dressings were cut into ~5-10×5-10 mm squares, using an ethanol washed pair of scissors. A maximum of 0.20 g of the material was added into 10 mL DI water, and the pH was adjusted to ~3 by the addition of 0.1 M aq. HCl solution. The solution was stirred for 10 mins at room temperature, followed by the addition of 0.33 g EDC •HCl (1.7 mmol) and the pH was maintained at ~3 by the addition of 0.1 M aq. HCl solution. The solution was stirred at room temperature for 10 mins followed by the addition of 0.88 g compound 8 which was dissolved in DMSO or DMF. The mixture was stirred at room temperature for 48 h. The wound dressings were filtered and were washed with ethanol. To ensure the full removal of any non-coupled amide (8), the foam samples were resuspended in ethanol, stirred for 10 mins and filtered, and this process was repeated until the amide (8) was not detectable from the filtrate (this could be maintained by TLC or HPLC evaluation). The samples were dried in a vacuum oven for 3-4 h.\n(§2) The aqueous solution of 3a or 3b was prepared by the following: the desired amount of the enzymatic substrate (3.0 mg for 300 mg/L, 6.0 mg for 600 mg/L, 9.0 mg for 900 mg/L, 15.0 mg for 1500 mg/L, and 30.0 mg for 3000 mg/L) was weighed out on a 4 decimal place balance within ±0.3 mg error limit into a 10 mL volumetric flask and was adjusted to 10.0 mL with DI water. The solutions were absorbed into the foam samples and dried in a vacuum oven at 40° C. overnight.\n(§3) Bacterial strains were routinely cultured from working stocks in Tryptic Soy Broth (TSB) and incubated at 37° C. overnight with shaking at 150 RPM. Overnight cultures were centrifuged at 3000×g for 5 minutes, the supernatant discarded, and the pellet resuspended in 10 mL phosphate buffered saline (PBS). Bacterial inoculums were standardised by optical density at 600 nm on an Amersham Biosciences Ultrospec 10 spectrophotometer (Amersham Biosciences, Amersham, UK) to contain between 1 and 3×10^8 CFU/mL.\n(§4) However, rapid evaluation of lower bacteria concentrations is essential for the desired clinical application. […] The solutions were absorbed into the wound dressing samples, which were dried overnight under vacuum at 40° C.\n(§5) Two Gram negative strains (Escherichia coli—EC and Pseudomonas aeruginosa—PSA) and a Gram-positive bacterium (Staphylococcus aureus—SA) were evaluated. The bacteria were incubated overnight, centrifuged at 3000×g for 5 mins, the supernatant was discarded, and the residue pellets were resuspended in 10 mL PBS. The inoculums were standardised by measuring the optical density at 600 nm to assure a 1-3×10^8 CFU/mL. The standardised solutions were further diluted to prepare 1-3×10^6 and 1-3×10^4 CFU/mL suspension. 1×10^6 CFU would be an ideal breakpoint for a positive result, as this concentration coincides well with a level of colonisation that would likely go on to produce an infection.\n(§6) 100 μL bacterial suspensions were smeared over agar plates. Wound dressing samples were added to the top of the agar and were rolled over a few times (to ensure a full coverage and to ease the visibility of the colour change). The plates were incubated at 37° C., and the results were recorded after 24 h, after 48 h, after 72 h. The results are shown in Table 3-5; − indicates no colour change, +− indicates relatively discernible blue colour change, + indicates a moderately strong blue colour change and ++ indicates a strong blue colour change."}, "Pseudomonas aeruginosa": {"system": "Pseudomonas aeruginosa", "test": "Microbiological evaluation of standardised bacterial suspensions, modified wound dressing with absorbed substrate on agar", "type": "cell-based", "parameters": "key to Observable colour change: − indicates no colour change; +− indicates relatively discernible blue colour change; + indicates a moderately strong blue colour change; ++ indicates a strong blue colour change", "description": "as §1, §2, §3, §4, §5, §6"}},
  "data": [
    {"smiles": "CCN(CC)c1ccc(NC(=O)[C@@H](N)CC(C)C)cc1.Cl", "note": "[3b, (2S)-2-amino-N-[4-(diethylamino)phenyl]-4-methyl-pentanamide hydrochloride]", "values": [
      {"measurement": "Observable colour change", "setting": "Staphylococcus aureus; SA 10^4, substrate 300 mg/L, 24 h at 37° C.", "result": "−"},
      {"measurement": "Observable colour change", "setting": "Staphylococcus aureus; SA 10^4, substrate 300 mg/L, 48 h at 37° C.", "result": "−"},
      {"measurement": "Observable colour change", "setting": "Staphylococcus aureus; SA 10^4, substrate 300 mg/L, 72 h at 37° C.", "result": "−"},
      {"measurement": "Observable colour change", "setting": "Staphylococcus aureus; SA 10^4, substrate 900 mg/L, 24 h at 37° C.", "result": "−"},
      {"measurement": "Observable colour change", "setting": "Staphylococcus aureus; SA 10^4, substrate 900 mg/L, 48 h at 37° C.", "result": "−"},
      {"measurement": "Observable colour change", "setting": "Staphylococcus aureus; SA 10^4, substrate 900 mg/L, 72 h at 37° C.", "result": "−"},
      {"measurement": "Observable colour change", "setting": "Staphylococcus aureus; SA 10^4, substrate 1500 mg/L, 24 h at 37° C.", "result": "−"},
      {"measurement": "Observable colour change", "setting": "Staphylococcus aureus; SA 10^4, substrate 1500 mg/L, 48 h at 37° C.", "result": "−"},
      {"measurement": "Observable colour change", "setting": "Staphylococcus aureus; SA 10^4, substrate 1500 mg/L, 72 h at 37° C.", "result": "−"},
      {"measurement": "Observable colour change", "setting": "Staphylococcus aureus; SA 10^6, substrate 300 mg/L, 24 h at 37° C.", "result": "−"},
      {"measurement": "Observable colour change", "setting": "Staphylococcus aureus; SA 10^6, substrate 300 mg/L, 48 h at 37° C.", "result": "−"},
      {"measurement": "Observable colour change", "setting": "Staphylococcus aureus; SA 10^6, substrate 300 mg/L, 72 h at 37° C.", "result": "−"},
      {"measurement": "Observable colour change", "setting": "Staphylococcus aureus; SA 10^6, substrate 900 mg/L, 24 h at 37° C.", "result": "−"},
      {"measurement": "Observable colour change", "setting": "Staphylococcus aureus; SA 10^6, substrate 900 mg/L, 48 h at 37° C.", "result": "−"},
      {"measurement": "Observable colour change", "setting": "Staphylococcus aureus; SA 10^6, substrate 900 mg/L, 72 h at 37° C.", "result": "−"},
      {"measurement": "Observable colour change", "setting": "Staphylococcus aureus; SA 10^6, substrate 1500 mg/L, 24 h at 37° C.", "result": "−"},
      {"measurement": "Observable colour change", "setting": "Staphylococcus aureus; SA 10^6, substrate 1500 mg/L, 48 h at 37° C.", "result": "−"},
      {"measurement": "Observable colour change", "setting": "Staphylococcus aureus; SA 10^6, substrate 1500 mg/L, 72 h at 37° C.", "result": "+−"},
      {"measurement": "Observable colour change", "setting": "Staphylococcus aureus; SA 10^8, substrate 300 mg/L, 24 h at 37° C.", "result": "−"},
      {"measurement": "Observable colour change", "setting": "Staphylococcus aureus; SA 10^8, substrate 300 mg/L, 48 h at 37° C.", "result": "−"},
      {"measurement": "Observable colour change", "setting": "Staphylococcus aureus; SA 10^8, substrate 300 mg/L, 72 h at 37° C.", "result": "−"},
      {"measurement": "Observable colour change", "setting": "Staphylococcus aureus; SA 10^8, substrate 900 mg/L, 24 h at 37° C.", "result": "−"},
      {"measurement": "Observable colour change", "setting": "Staphylococcus aureus; SA 10^8, substrate 900 mg/L, 48 h at 37° C.", "result": "−"},
      {"measurement": "Observable colour change", "setting": "Staphylococcus aureus; SA 10^8, substrate 900 mg/L, 72 h at 37° C.", "result": "−"},
      {"measurement": "Observable colour change", "setting": "Staphylococcus aureus; SA 10^8, substrate 1500 mg/L, 24 h at 37° C.", "result": "−"},
      {"measurement": "Observable colour change", "setting": "Staphylococcus aureus; SA 10^8, substrate 1500 mg/L, 48 h at 37° C.", "result": "+−"},
      {"measurement": "Observable colour change", "setting": "Staphylococcus aureus; SA 10^8, substrate 1500 mg/L, 72 h at 37° C.", "result": "+−"},
      {"measurement": "colour change", "setting": "Staphylococcus aureus; 48 h paragraph, substrate 1500 mg/L", "result": "weak, but discernible colour change"},
      {"measurement": "colour change", "setting": "Staphylococcus aureus; after 72 h, substrate 1500 mg/L", "result": "weak, hardly visible colour change"},
      {"measurement": "Observable colour change", "setting": "Pseudomonas aeruginosa; PSA 10^4, substrate 300 mg/L, 24 h at 37° C.", "result": "−"},
      {"measurement": "Observable colour change", "setting": "Pseudomonas aeruginosa; PSA 10^4, substrate 300 mg/L, 48 h at 37° C.", "result": "−"},
      {"measurement": "Observable colour change", "setting": "Pseudomonas aeruginosa; PSA 10^4, substrate 300 mg/L, 72 h at 37° C.", "result": "+"},
      {"measurement": "Observable colour change", "setting": "Pseudomonas aeruginosa; PSA 10^4, substrate 900 mg/L, 24 h at 37° C.", "result": "−"},
      {"measurement": "Observable colour change", "setting": "Pseudomonas aeruginosa; PSA 10^4, substrate 900 mg/L, 48 h at 37° C.", "result": "−"},
      {"measurement": "Observable colour change", "setting": "Pseudomonas aeruginosa; PSA 10^4, substrate 900 mg/L, 72 h at 37° C.", "result": "++"},
      {"measurement": "Observable colour change", "setting": "Pseudomonas aeruginosa; PSA 10^4, substrate 1500 mg/L, 24 h at 37° C.", "result": "−"},
      {"measurement": "Observable colour change", "setting": "Pseudomonas aeruginosa; PSA 10^4, substrate 1500 mg/L, 48 h at 37° C.", "result": "−"},
      {"measurement": "Observable colour change", "setting": "Pseudomonas aeruginosa; PSA 10^4, substrate 1500 mg/L, 72 h at 37° C.", "result": "++"},
      {"measurement": "Observable colour change", "setting": "Pseudomonas aeruginosa; PSA 10^6, substrate 300 mg/L, 24 h at 37° C.", "result": "−"},
      {"measurement": "Observable colour change", "setting": "Pseudomonas aeruginosa; PSA 10^6, substrate 300 mg/L, 48 h at 37° C.", "result": "−"},
      {"measurement": "Observable colour change", "setting": "Pseudomonas aeruginosa; PSA 10^6, substrate 300 mg/L, 72 h at 37° C.", "result": "+"},
      {"measurement": "Observable colour change", "setting": "Pseudomonas aeruginosa; PSA 10^6, substrate 900 mg/L, 24 h at 37° C.", "result": "−"},
      {"measurement": "Observable colour change", "setting": "Pseudomonas aeruginosa; PSA 10^6, substrate 900 mg/L, 48 h at 37° C.", "result": "+−"},
      {"measurement": "Observable colour change", "setting": "Pseudomonas aeruginosa; PSA 10^6, substrate 900 mg/L, 72 h at 37° C.", "result": "++"},
      {"measurement": "Observable colour change", "setting": "Pseudomonas aeruginosa; PSA 10^6, substrate 1500 mg/L, 24 h at 37° C.", "result": "−"},
      {"measurement": "Observable colour change", "setting": "Pseudomonas aeruginosa; PSA 10^6, substrate 1500 mg/L, 48 h at 37° C.", "result": "−"},
      {"measurement": "Observable colour change", "setting": "Pseudomonas aeruginosa; PSA 10^6, substrate 1500 mg/L, 72 h at 37° C.", "result": "+"},
      {"measurement": "colour change", "setting": "Pseudomonas aeruginosa; PSA 10^8, 10^6 or 10^4 CFU, after 72 h, every tested substrate concentration", "result": "moderate or strong blue colour changes"},
      {"measurement": "Observable colour change", "setting": "Pseudomonas aeruginosa; PSA 10^8, substrate 300 mg/L, 24 h at 37° C.", "result": "−"},
      {"measurement": "Observable colour change", "setting": "Pseudomonas aeruginosa; PSA 10^8, substrate 300 mg/L, 48 h at 37° C.", "result": "+"},
      {"measurement": "Observable colour change", "setting": "Pseudomonas aeruginosa; PSA 10^8, substrate 300 mg/L, 72 h at 37° C.", "result": "+"},
      {"measurement": "Observable colour change", "setting": "Pseudomonas aeruginosa; PSA 10^8, substrate 900 mg/L, 24 h at 37° C.", "result": "−"},
      {"measurement": "Observable colour change", "setting": "Pseudomonas aeruginosa; PSA 10^8, substrate 900 mg/L, 48 h at 37° C.", "result": "++"},
      {"measurement": "Observable colour change", "setting": "Pseudomonas aeruginosa; PSA 10^8, substrate 900 mg/L, 72 h at 37° C.", "result": "++"},
      {"measurement": "Observable colour change", "setting": "Pseudomonas aeruginosa; PSA 10^8, substrate 1500 mg/L, 24 h at 37° C.", "result": "−"},
      {"measurement": "Observable colour change", "setting": "Pseudomonas aeruginosa; PSA 10^8, substrate 1500 mg/L, 48 h at 37° C.", "result": "++"},
      {"measurement": "Observable colour change", "setting": "Pseudomonas aeruginosa; PSA 10^8, substrate 1500 mg/L, 72 h at 37° C.", "result": "++"},
      {"measurement": "colour change", "setting": "Pseudomonas aeruginosa; PSA 10^8 CFU, 10^6 CFU, and 104 CFU, substrate 900 mg/L, printed in the 48 h paragraph", "result": "strong blue colour changes"},
      {"measurement": "colour change", "setting": "Pseudomonas aeruginosa; PSA 10^8 CFU, after 48 h incubation, substrate 900 or 1500 mg/L", "result": "strong blue colour changes"}
    ]}
  ]
}
